Laboratory results from PMC11169275, “MAL2 reprograms lipid metabolism in intrahepatic cholangiocarcinoma via EGFR/SREBP-1 pathway based on single-cell RNA sequencing” (Cell Death & Disease, 2024).

Target: T1, MAL2 (GFP-MAL2) (Homo sapiens, UniProt Q969L2)
T1 construct: GFP fusion (GFP-MAL2) transiently expressed in HEK293T, diluted cell lysate, not purified
Experiment: microscale thermophoresis, GFP-MAL2 in HEK293T lysate
Type: binding
From the text: microscale thermophoresis, GFP-MAL2 in HEK293T lysate on MAL2 (GFP-MAL2) | only sarizotan could assemble with MAL2, with a dissociation constant (Kd)

T1 sequence (Q969L2 whole entry, the tested form may be a part): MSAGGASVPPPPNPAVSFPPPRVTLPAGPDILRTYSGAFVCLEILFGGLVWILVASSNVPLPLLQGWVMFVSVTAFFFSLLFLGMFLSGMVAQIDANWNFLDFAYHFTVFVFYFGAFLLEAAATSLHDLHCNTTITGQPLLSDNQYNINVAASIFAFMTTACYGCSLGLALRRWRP

Fc1ccc(-c2cncc(CNC[C@H]3CCc4ccccc4O3)c2)cc1 [sarizotan]
Kd: 36.1 µM
